Assay results reported in US10143667B2, “Ceramide-like function imparting agent” (KAO CORPORATION, priority 2013, dated 2018).

How the values were obtained:
[1] = Evaluation of lamellar-formation ability (X-ray diffraction); assay type: physicochemical; parameters: key to Evaluation of X-ray diffraction measurement: wide-angle X-ray measurement: A: diffraction peaks originating from crystals of stearic acid and cholesterol disappeared and only the peaks originating from a lamellar structure were observed near 2θ=22°; B: diffraction peaks originating from crystals of stearic acid and cholesterol remained but peaks originating approximately from a lamellar structure were observed; C: peaks originating from a lamellar structure were observed only partly; D: no peaks originating from a lamellar structure were observed; key to Evaluation of X-ray diffraction measurement: small-angle X-ray measurement: E: diffraction peaks originating from a periodic structure of lamellar structure were observed; F: no diffraction peaks were observed; conditions: equimolar mixture of stearic acid, cholesterol and sample, 30 wt % ion-exchange water
Procedure: Evaluation of lamellar-formation ability was conducted according to the method by Mizushima et al. (Lipids, 30(4), 327-332 (1995)).
Each of stearic acid and cholesterol, used as representatives of fatty acids that are horny layer intercellular lipids, as well as a sample to be evaluated was weighed to give an equimolar mixture, and an ion-exchange water was added thereto in an amount of 30 wt % of the weight of the lipids. The mixture was heat-melted and then cooled to give an evaluation sample.
Wide-angle X-ray diffraction apparatus ((PANalytical) X' Pert MRD High Resolution X-ray Diffractometer)
Small-angle X-ray scattering apparatus ((NANO Viewer manufactured by RIGAKU Corporation), Small-angle X-ray scattering)
In the case where the wide-angle X-ray diffraction apparatus was used, sampling for measurement was conducted by finely grinding a sample in an agate mortar and packing the sample in a measurement cell to give a flat surface. In the case of small-angle X-ray scattering apparatus, the sample was packed in a cell made of stainless steel having grid openings of approximately 4 mm in width and 2 mm in depth.
Conditions for wide-angle X-ray diffraction measurement: measurement cell: a cell for exclusive use made of stainless steel, applied voltage: 45 kV, applied current: 40 mA.
measured range: 2θ=3° to 45°, measurement speed: 2θ=1°/min.
Conditions for small-angle X-ray measurement: measurement cell: a sample that was packed in a stainless steel holder having grid openings was measured.
applied voltage: […], applied current: 30 mA, X-ray irradiation period: 30 minutes, measured at a camera length of from 450 to 650 mm using a detector with an imaging plate.
In a wide-angle X-ray diffraction measurement, a symbol A was assigned to a sample wherein diffraction peaks originating from crystals of stearic acid and cholesterol disappeared and only the peaks originating from a lamellar structure were observed near 2θ=22°, a symbol B was assigned to a sample wherein diffraction peaks originating from crystals of stearic acid and cholesterol remained but peaks originating approximately from a lamellar structure were observed, a symbol C was assigned to a sample wherein peaks originating from a lamellar structure were observed only partly, and a symbol D was assigned to a sample wherein no peaks originating from a lamellar structure were observed. In addition, in a small-angle X-ray measurement, a symbol E was assigned to a sample wherein diffraction peaks originating from a periodic structure of lamellar structure were observed, and a symbol F was assigned to a sample wherein no diffraction peaks were observed.

[2] = Evaluation as to occlusion (TEWL-inhibition), lipid-impregnated filter paper; conditions: filter paper immersed in 10% lipid mixture solution; average of three measurements; versus solvent-only filter
Procedure: Evaluation as to occlusion was conducted according to the method by Akasaki et al. (Fragrance Journal, extra edition, No. 13, p. 65, 1994).
Each of stearic acid and cholesterol, used as representatives of fatty acids that are horny layer intercellular lipids, and a sample to be evaluated was weighed into a screw tube, and a mixed liquid of chloroform and methanol (9:1 by volume) was used to give a 10% solution of the lipid mixture (w/v). A filter paper ([…] Co. Ltd., No. 5C, ϕ=21 mm) was immersed in the 10% solution, and then taken out, dried at room temperature, heated at 90° C. for one hour, hydrated by a water sprayer, heat-treated at 60° C. for 12 hours, and then cooled. The filter thus prepared was set in a vial charged with ion-exchange water (20 ml), and the weight of the filter was measured over time to calculate an amount of TEWL. As a control, was measured an amount of TEWL of a filter which had been immersed only in a mixed liquid of chloroform and methanol (9:1 by volume). A control rate of TEWL (%) was calculated according to the following equation: Control rate of TEWL (%)=(1−amount of TEWL of evaluated sample/amount of TEWL of control)×100. 2) Results

[3] = Measurement on bonded water content (differential scan calorimetric analysis); assay type: physicochemical; conditions: equimolar mixture of stearic acid, cholesterol and sample plus ion-exchange water; DSC
Procedure: Measurement on bonded water content was conducted according to the method by Akasaki et al. (Fragrance Journal, extra edition, No. 13, pp. 66-67, 1994).
1) Differential scan calorimetric analyzer: (DSC6100 (SII Seiko Instruments Inc.)).
A sample prepared by adding ion-exchange water to an equimolar mixture of stearic acid and cholesterol, both used as representatives of fatty acids that are a horny layer intercellular lipid, and a sample to be evaluated, was encapsulated in a cell, and the water content thereof was measured. The temperature of the sample was raised from −40° C. at a rate of 1° C./minute to obtain an enthalpy change accompanied by the temperature raise. A bonded water content was determined from the relation between a water content of a lipid mixture (an amount of moisture absorbed) and a change of peak of enthalpy (melting heat), and an enthalpy change was obtained from the point 0.

In the case of “2-(hexadecyl/octadecyl)-N,N,-bis(2-hydroxyethyl)succinamide [Compound 2]”, the “Evaluation of X-ray diffraction measurement: small-angle X-ray measurement” value [1] is reported as “E” and the “Evaluation of X-ray diffraction measurement: wide-angle X-ray measurement” value [1] is reported as “B”.
With `CCCCCCCCCCCCCCCC(=O)NCCO` [Comparative Compound 1, N-(2-hydroxyethyl)palmitamide, reference compound] the “Evaluation of X-ray diffraction measurement: small-angle X-ray measurement” value [1] was “F” and the “Evaluation of X-ray diffraction measurement: wide-angle X-ray measurement” value [1] was “D”.
In the case of `CCCCCCCCCCCCC/C=C/CC(CC(=O)NCCCCCCCCCCCCCCCC)C(=O)NCCCCCCCCCCCCCCCC` (centres unmarked) [Comparative Compound 3, (E)-2-(hexadeca-2-en-1-yl)-N,N,-dihexadecylsuccinamide, reference compound], the “Evaluation of X-ray diffraction measurement: small-angle X-ray measurement” value [1] is reported as “F” and the “Evaluation of X-ray diffraction measurement: wide-angle X-ray measurement” value [1] is reported as “D”.
With `CCCCCCCCCCCCCCCCOCC(O)CN(CCO)C(=O)CCCCCCCCCCCCCCC` (centres unmarked) [Sphingolipid E, reference compound] the “Evaluation of X-ray diffraction measurement: small-angle X-ray measurement” value [1] was “E”, the “Evaluation of X-ray diffraction measurement: wide-angle X-ray measurement” value [1] was “A” and the TEWL inhibition rate [2] was 32.8%. For the same molecule, the Bonded water content [3] was 7.1 % by mass.
In the case of “(E)-2-(eicosa/docosa/tetracosa)-2-en-1-yl)-N,N,-bis(2-hydroxyethyl)succinamide [Compound 5]”, the “Evaluation of X-ray diffraction measurement: small-angle X-ray measurement” value [1] is reported as “E” and the “Evaluation of X-ray diffraction measurement: wide-angle X-ray measurement” value [1] is reported as “A”.
In the case of “(E)-2-(hexadeca/octadeca)-2-en-1-yl)-N,N,-bis(1-hydroxypropan-2-yl)succinamide [Compound 4]”, the “Evaluation of X-ray diffraction measurement: small-angle X-ray measurement” value [1] is reported as “E” and the “Evaluation of X-ray diffraction measurement: wide-angle X-ray measurement” value [1] is reported as “C”.
In the case of “(E)-2-(hexadeca/octadeca)-2-en-1-yl)-N,N,-bis(2-(2-hydroxy-ethoxy)ethyl)succinamide [Comparative Compound 2, reference compound]”, the “Evaluation of X-ray diffraction measurement: small-angle X-ray measurement” value [1] is reported as “F”, the “Evaluation of X-ray diffraction measurement: wide-angle X-ray measurement” value [1] is reported as “D” and the TEWL inhibition rate [2] is reported as 24.2%.
In the case of “(E)-2-(hexadeca/octadeca)-2-en-1-yl)-N,N,-bis(2-hydroxyethyl)succinamide [Compound 1]”, the “Evaluation of X-ray diffraction measurement: small-angle X-ray measurement” value [1] is reported as “E” and the “Evaluation of X-ray diffraction measurement: wide-angle X-ray measurement” value [1] is reported as “B”.
For “(E)-2-(hexadeca/octadeca)-2-en-1-yl)-N-hexadecyl-N-(2-hydroxyethyl)succinamide [Comparative compound 4]”, the TEWL inhibition rate [2] was 27.4%.
For “(E)-N,N,-bis(1,3-dihydroxy-2-(hydroxymethyl)propan-2-yl)-2-((hexadeca/octadeca)-2-en-1-yl)-succinamide [Compound 7]”, the “Evaluation of X-ray diffraction measurement: small-angle X-ray measurement” value [1] was “E” and the “Evaluation of X-ray diffraction measurement: wide-angle X-ray measurement” value [1] was “A”.
In the case of “(E)-N,N,-bis(1,3-dihydroxy-2-methylpropan-2-yl)-2-((hexadeca/octadeca)-2-en-1-yl)-succinamide [Compound 6]”, the “Evaluation of X-ray diffraction measurement: small-angle X-ray measurement” value [1] is reported as “E” and the “Evaluation of X-ray diffraction measurement: wide-angle X-ray measurement” value [1] is reported as “B”.
In the case of “(E)-N,N,-bis(3-hydroxypropyl)-2-((hexadeca/octadeca)-2-en-1-yl)-succinamide [Compound 3]”, the “Evaluation of X-ray diffraction measurement: small-angle X-ray measurement” value [1] is reported as “E” and the “Evaluation of X-ray diffraction measurement: wide-angle X-ray measurement” value [1] is reported as “C”.
